Activity calls are given as the source filed them. No cut-off for these calls is given here.
How the values were obtained:
SK-HEP1 = assay: Antitumor activity against human SK-HEP1 cells xenografted BALB/c nu mouse assessed as decrease in tumor volume at 100 mg/kg/day, po measured on the 18th day; format: functional, organism-based; conditions: time 18.0 day
[1] = Antiproliferative activity against ARID1A/1B proficient human OVISE cells after 7 days by Cell-Titer Glo assay; format: functional, cell-based; conditions: 168 h

Row | SMILES | Activity (SK-HEP1) | IC50 [1] [nM]
1 | Cc1onc(C(=O)N2CCN(C(c3ccc(Cl)cc3)c3ccc(Cl)cc3)CC2)c1[N+](=O)[O-] | Active | –
2 | COC(=O)c1ccc([C@H]2c3[nH]c4ccccc4c3C[C@H](C(=O)OC)N2C(=O)CCl)cc1 | – | < 3
